Measured values published in patent publication US5696151A, “Compounds useful for the inhibition of the replication of HIV-1 and HIV-1 mutants” (priority 1995, dated 1997).
Converted amounts (≈) assume the structure as drawn.

Tests used:
Assay type in all cases: cell-based
HIV-1/100-Ile = assay: Inhibition of HIV-1 induced syncytium formation in CEM cells, RT mutant 100-Ile; conditions: Human immunodeficiency virus 1, CCRF-CEM, 96 h, Table 2B, day 4, averages of 2 to 3 independent experiments, read-out: Antiviral Activity of Comparative Compounds EC50, 100-Ile
From the text: (§1) CEM cells were obtained from the American Tissue Cell Culture Collection (Rockville, Md.). HIV-1(IIIB) was originally obtained from the culture supernatant of persistently HIV-1-infected H9 cells and was provided by R. C. Gallo and M. Popovic (National Cancer Institute, National Institutes of Health, Bethesda, Md.). […] 67: 5353-5359 (1993); HIV-1/Lys-138 ("Lys-138") was selected for resistance against TSAO-m^3T as described in Balzarini et al, Virology 192: 246-253 (1993) and Balzarini et al, Proc. Nat. Acad. Sci. USA 90: 6952-6956 (1993); HIV-1/181-Cys ("181-Cys") was selected for resistance against pyridinone L-697,661 as described in Balzarini et al, Virology 192: 246-253 (1993); and HIV-1/188-His ("188-His") was selected for resistance against HEPT as described in Balzarini et al, Mol. Pharmocol. 44: 694-701 (1993). 188-His was then further converted to HIV-1/188-Leu "188-Leu") upon further passage in cell culture in the absence of the HEPT.
(§2) CEM cells were suspended at ≈300,000 cells per ml of culture medium and infected with approximately 100 CCID50 (CCID50 being the 50% cell culture infective dose) of HIV-1(IIIB) or one of the HIV-1 RT mutant strains described above. Then 100 μl of the infected cell suspensions was added to 200 μl microtiter plate wells containing 100 μl of appropriate serial (5-fold) dilutions of the test compounds. The inhibitory effect of the test compounds on HIV-1 induced syncytium formation in CEM cells was examined microscopically on day 4 post infection.

HIV-1/181-Cys = assay: Inhibition of HIV-1 induced syncytium formation in CEM cells, RT mutant 181-Cys; conditions: Human immunodeficiency virus 1, CCRF-CEM, 96 h, Table 2B, day 4, averages of 2 to 3 independent experiments, read-out: Antiviral Activity of Comparative Compounds EC50, 181-Cys
From the text: as §1, §2

in vitro = conditions: human, cem cells, CC50 (50% cytostatic concentration), Table 2B; CEM cell proliferation; averages of 2 to 3 independent experiments
From the text: as §1
^b 50% cytostatic concentration (i.e., compound concentration require
to inhibit CEM cell proliferation by 50%)

HIV-1/Lys-138 = assay: Inhibition of HIV-1 induced syncytium formation in CEM cells, RT mutant 138-Lys; conditions: Human immunodeficiency virus 1, CCRF-CEM, 96 h, Table 2B, day 4, averages of 2 to 3 independent experiments, read-out: Antiviral Activity of Comparative Compounds EC50, 138-Lys
From the text: as §1, §2

HIV-1(IIIB) = assay: Inhibition of HIV-1 induced syncytium formation in CEM cells, wild type; conditions: Human immunodeficiency virus 1, IIIB, CCRF-CEM, 96 h, Table 2B, WT = HIV-1(IIIB), day 4, averages of 2 to 3 independent experiments, read-out: Antiviral Activity of Comparative Compounds EC50, WT
From the text: as §1, §2

HIV-1/106-Ala = assay: Inhibition of HIV-1 induced syncytium formation in CEM cells, RT mutant 106-Ala; conditions: Human immunodeficiency virus 1, CCRF-CEM, 96 h, Table 2B, day 4, averages of 2 to 3 independent experiments, read-out: Antiviral Activity of Comparative Compounds EC50, 106-Ala
From the text: as §1, §2

| Structure (SMILES) | EC50 (HIV-1/100-Ile) | EC50 (HIV-1/181-Cys) | CC50 (in vitro) | EC50 (HIV-1/Lys-138) | EC50 (HIV-1(IIIB)) | EC50 (HIV-1/106-Ala) |
| --- | --- | --- | --- | --- | --- | --- |
| COc1ccccc1C(=O)Nc1ccc(Cl)c(C(=O)OC2CCCC2)c1 [Compound 68] | 5 µg/mL (≈ 13.4 µM) | 8.5 µg/mL (≈ 22.7 µM) | > 100 µg/mL | 5.5 µg/mL (≈ 14.7 µM) | 0.45 µg/mL (≈ 1.2 µM) | 8.5 µg/mL (≈ 22.7 µM) |
| COc1ccccc1C(=S)Nc1ccc(Cl)c(C(=O)OC2CCCC2)c1 [Compound 69] | 0.65 µg/mL (≈ 1.67 µM) | 3.5 µg/mL (≈ 8.98 µM) | 10 µg/mL (≈ 25.6 µM) | 0.55 µg/mL (≈ 1.41 µM) | 0.04 µg/mL (≈ 0.103 µM) | 0.65 µg/mL (≈ 1.67 µM) |
| Cc1ccccc1C(=O)Nc1ccc(Cl)c(C(=O)OC2CCCCC2)c1 [Compound 70] | 2.5 µg/mL (≈ 6.72 µM) | 2.5 µg/mL (≈ 6.72 µM) | 5.2 µg/mL (≈ 14 µM) | 5.5 µg/mL (≈ 14.8 µM) | 0.19 µg/mL (≈ 0.511 µM) | 6.5 µg/mL (≈ 17.5 µM) |
| Cc1ccccc1C(=S)Nc1ccc(Cl)c(C(=O)OC2CCCCC2)c1 [Compound 71] | 0.6 µg/mL (≈ 1.55 µM) | 1.6 µg/mL (≈ 4.12 µM) | 4 µg/mL (≈ 10.3 µM) | 3 µg/mL (≈ 7.73 µM) | 0.049 µg/mL (≈ 0.126 µM) | 3 µg/mL (≈ 7.73 µM) |
| CON=Cc1cc(NC(=S)c2ccoc2C)ccc1Cl [Compound 72] | 2.3 µg/mL (≈ 7.45 µM) | 1.6 µg/mL (≈ 5.18 µM) | 24 µg/mL (≈ 77.7 µM) | 0.085 µg/mL (≈ 0.275 µM) | 0.03 µg/mL (≈ 0.0972 µM) | 0.5 µg/mL (≈ 1.62 µM) |
| C=CCOc1cc(NC(=S)c2ccoc2C)ccc1OC [Compound 73] | 2.9 µg/mL (≈ 9.56 µM) | 0.85 µg/mL (≈ 2.8 µM) | > 100 µg/mL | 0.09 µg/mL (≈ 0.297 µM) | 0.017 µg/mL (≈ 0.056 µM) | 0.8 µg/mL (≈ 2.64 µM) |
| C=CCOc1cc(NC(=S)c2ccoc2C)ccc1C#N [Compound 74] | 6 µg/mL (≈ 20.1 µM) | 3 µg/mL (≈ 10.1 µM) | > 100 µg/mL | 0.09 µg/mL (≈ 0.302 µM) | 0.015 µg/mL (≈ 0.0503 µM) | 0.45 µg/mL (≈ 1.51 µM) |
| CCOC(=O)c1cc(NC(=S)c2ccoc2C)ccc1C [Compound 75] | 0.9 µg/mL (≈ 2.97 µM) | 0.6 µg/mL (≈ 1.98 µM) | 16 µg/mL (≈ 52.7 µM) | 0.35 µg/mL (≈ 1.15 µM) | 0.009 µg/mL (≈ 0.0297 µM) | 0.7 µg/mL (≈ 2.31 µM) |
| C=CCOc1cc(NC(=S)c2sccc2C)ccc1Cl [Compound 76] | 2.7 µg/mL (≈ 8.34 µM) | > 1 µg/mL | 5.3 µg/mL (≈ 16.4 µM) | 0.73 µg/mL (≈ 2.25 µM) | 0.035 µg/mL (≈ 0.108 µM) | ≥ 1 µg/mL |
| C=CCOc1cc(NC(=S)c2sccc2C)ccc1C#N [Compound 77] | ≥ 1 µg/mL | > 1 µg/mL | 3.6 µg/mL (≈ 11.4 µM) | 0.55 µg/mL (≈ 1.75 µM) | 0.045 µg/mL (≈ 0.143 µM) | ≥ 1 µg/mL |
| C=CCOc1cc(NC(=S)c2sccc2C)ccc1OC [Compound 78] | 5 µg/mL (≈ 15.7 µM) | 3.3 µg/mL (≈ 10.3 µM) | 7.1 µg/mL (≈ 22.2 µM) | 1.13 µg/mL (≈ 3.54 µM) | 0.045 µg/mL (≈ 0.141 µM) | 2 µg/mL (≈ 6.26 µM) |
| O=C(OC1CCCCC1)c1cc(NC(=S)c2ccsc2)ccc1Cl [Compound 79] | 0.85 µg/mL (≈ 2.24 µM) | 0.08 µg/mL (≈ 0.211 µM) | 4.1 µg/mL (≈ 10.8 µM) | 0.07 µg/mL (≈ 0.184 µM) | 0.03 µg/mL (≈ 0.079 µM) | 0.07 µg/mL (≈ 0.184 µM) |
| O=C(OC1CCCCC1)c1cc(NC(=S)c2ccccc2Cl)ccc1Cl [Compound 80] | 4 µg/mL (≈ 9.8 µM) | 3 µg/mL (≈ 7.35 µM) | 8.3 µg/mL (≈ 20.3 µM) | 4 µg/mL (≈ 9.8 µM) | 0.5 µg/mL (≈ 1.22 µM) | 5 µg/mL (≈ 12.2 µM) |
| COc1ccccc1C(=S)Nc1ccc(Cl)c(C(=O)OC2CCCCC2)c1 [Compound 81] | 0.7 µg/mL (≈ 1.73 µM) | 4.5 µg/mL (≈ 11.1 µM) | 12 µg/mL (≈ 29.7 µM) | 0.6 µg/mL (≈ 1.49 µM) | 0.04 µg/mL (≈ 0.099 µM) | 0.65 µg/mL (≈ 1.61 µM) |
| O=C(OC1CCCCC1)c1cc(NC(=S)c2ccccc2)ccc1Cl [Compound 82] | 2 µg/mL (≈ 5.35 µM) | 0.8 µg/mL (≈ 2.14 µM) | 5.2 µg/mL (≈ 13.9 µM) | 0.55 µg/mL (≈ 1.47 µM) | 0.03 µg/mL (≈ 0.0802 µM) | 1 µg/mL (≈ 2.67 µM) |
| Cc1occc1C(=S)Nc1ccc(Cl)c(C(=O)OC2CCCCC2)c1 [Compound 83] | 0.17 µg/mL (≈ 0.45 µM) | 0.07 µg/mL (≈ 0.185 µM) | 9.7 µg/mL (≈ 25.7 µM) | 0.035 µg/mL (≈ 0.0926 µM) | 0.004 µg/mL (≈ 0.0106 µM) | 0.057 µg/mL (≈ 0.151 µM) |
| CC(C)OC(=O)c1cc(NC(=S)c2ccccc2N)ccc1Cl [Compound 85] | 6 µg/mL (≈ 17.2 µM) | 5.3 µg/mL (≈ 15.2 µM) | 6.7 µg/mL (≈ 19.2 µM) | 5.5 µg/mL (≈ 15.8 µM) | 0.5 µg/mL (≈ 1.43 µM) | 7.5 µg/mL (≈ 21.5 µM) |
